For 22 molecules, IC50 results are on record in patent publication US11071730B2, “Substituted 6-azabenzimidazole compounds” (Gilead Sciences, Inc., priority 2018, dated 2021).

Chain of human HPK1 (MAP4K1) (Q92918 17-274): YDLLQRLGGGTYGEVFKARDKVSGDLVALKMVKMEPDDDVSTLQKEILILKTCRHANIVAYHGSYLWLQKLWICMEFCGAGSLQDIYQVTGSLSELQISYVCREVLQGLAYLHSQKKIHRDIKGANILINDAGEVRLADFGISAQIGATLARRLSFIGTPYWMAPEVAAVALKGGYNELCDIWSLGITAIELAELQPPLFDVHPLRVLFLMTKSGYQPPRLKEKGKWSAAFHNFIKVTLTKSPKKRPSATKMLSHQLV

The experiment has as its target human HPK1 (MAP4K1) (Homo sapiens (Human), UniProt Q92918). The experiment is described as follows: HPK1 IC50 Assay (TR-FRET biochemical kinase assay, STK S1 peptide substrate). The note with it: recombinant human HPK1 kinase domain 0.15 nM, 10 μM ATP, 1 μM STK S1 peptide; geometric mean of multiple experiments. How it is done:
The enzymatic activity of human HPK1 (MAP4K1) was monitored in a biochemical assay in the presence or absence of compounds and using a synthetic peptide substrate. An increase in phosphorylation of the peptide by HPK1 was indicative of its kinase activity.
Recombinant HPK1 kinase domain produced via baculovirus infection of insect cells was obtained from Proteros (Proteros Biostructures #PR-0322) and was pre-activated in the presence of 2 mM ATP (Sigma-Aldrich, cat #GE27-2056-01) and 2 mM magnesium chloride for 16 hours at 4° C. The protein reaction mixture was then loaded to a desalting column (Thermo Fisher Scientific, Cat #89889) to remove excess ATP. HPK1 was eluted with buffer containing 20 mM Tris (2-Amino-2-(hydroxymethyl)propane-1,3-diol) pH 8.0, 150 mM NaCl, 2 mM dithiothreitol and 5% glycerol, and was frozen at −80° C. for later use.
Ten nanoliters of test compounds dissolved in DMSO at various concentrations were dispensed into a 384-well ProxiPlate (PerkinElmer #6008289). Five microliters of a solution of recombinant HPK1 diluted in HPK1 kinase assay buffer (50 mM BES [N,N-Bis(2-hydroxyethyl)-2-aminoethanesulfonic acid], pH 7.0; 10 mM magnesium chloride; 0.01% Triton X-100; 1 mM dithiothreitol; 0.01% bovine serum albumin; 0.1 mM sodium orthovanadate) was added to the compound-containing plate and was incubated for 15 minutes at 25° C. Five microliters of a mixture of ATP (Sigma-Aldrich #A6559) and peptide substrate STK S1 (Cisbio #61ST1BLC) diluted in HPK1 kinase assay buffer was then added to start the reaction. Final concentrations were 0.15 nM for HPK1, 10 μM for ATP, and 1 μM for the STK S1 peptide substrate. The reaction mixture was incubated at 25° C. for 3 hours and was stopped with the addition of 10 μl of an EDTA (Ethylenediaminetetraacetic acid)-containing detection buffer (Cisbio #62SDBRDF) supplemented with Europium cryptate-labeled anti-phospho-serine/threonine antibodies (Cisbio #62ST1PEJ) and XL665-labeled streptavidin (Cisbio #610SAXLG). The mixture was incubated for 16 hours at room temperature and peptide phosphorylation was measured by time-resolved fluorescence energy transfer (665 nm/620 nm) on an Envision plate reader (PerkinElmer).
Data in Table 1 were normalized based on positive (staurosporine) and negative (DMSO) controls. Least squares curve fittings were performed using a four-parameter variable slope nonlinear regression model. IC50 is defined as the concentration of compound required to inhibit 50% of maximum phosphorylation. IC50 values from multiple experiments were averaged by geometric mean and the standard deviation was calculated.
As to `CC(C)n1cnc2cc(-c3ccc4c(c3)N([C@H]3C[C@@H](N5CCC(C)(C)C5)C3)C(=O)C43CCN(C(=O)C4CCO4)CC3)nc(Nc3ccncc3F)c21` (mixture of isomers) [Example 78, 1-((1s,3s)-3-(3,3-dimethylpyrrolidin-1-yl)cyclobutyl)-6-(4-((3-fluoropyridin-4-yl)amino)-3-isopropyl-3H-imidazo[4,5-c]pyridin-6-yl)-1′-(oxetane-2-carbonyl)spiro[indoline-3,4′-piperidin]-2-one], the IC50 was determined as 0.7 nM. With `CC(C)n1cnc2cc(-c3ccc4c(c3)N([C@H]3C[C@@H](N5CCC(C)(C)C5)C3)C(=O)C43CCN(C(=O)C4CCO4)CC3)nc(Nc3ccncc3F)c21` (single isomer, unassigned) [Example 78A, 1-((1s,3s)-3-(3,3-dimethylpyrrolidin-1-yl)cyclobutyl)-6-(4-((3-fluoropyridin-4-yl)amino)-3-isopropyl-3H-imidazo[4,5-c]pyridin-6-yl)-1′-(oxetane-2-carbonyl)spiro[indoline-3,4′-piperidin]-2-one], the IC50 was determined as 0.3 nM. As for `CC(C)n1cnc2cc(-c3ccc4c(c3)N([C@H]3C[C@@H](N5CCC(C)(C)C5)C3)C(=O)C43CCN(C(=O)[C@H]4CCO4)CC3)nc(Nc3ccncc3F)c21` (single isomer, unassigned) [Example 78B, 1-((1s,3s)-3-(3,3-dimethylpyrrolidin-1-yl)cyclobutyl)-6-(4-((3-fluoropyridin-4-yl)amino)-3-isopropyl-3H-imidazo[4,5-c]pyridin-6-yl)-1′-(oxetane-2-carbonyl)spiro[indoline-3,4′-piperidin]-2-one], the IC50 was determined as 0.3 nM. Under `CC(C)n1cnc2cc(-c3ccc4c(c3)N([C@H]3C[C@@H](N5CCCCC5)C3)C(=O)C43CCN(C(=O)C4(C)CCOCC4)CC3)nc(Nc3ccncc3F)c21` [Example 1, 6-(4-((3-fluoropyridin-4-yl)amino)-3-isopropyl-3H-imidazo[4,5-c]pyridin-6-yl)-1′-(4-methyltetrahydro-2H-pyran-4-carbonyl)-1-((1s,3s)-3-(piperidin-1-yl)cyclobutyl)spiro[indoline-3,4′-piperidin]-2-one] stands 0.6 nM; under `CC(C)n1cnc2cc(-c3ccc4c(c3)N([C@H]3C[C@@H](N5CCCCC5)C3)C(=O)C43CCN(C(=O)[C@@H](C)O)CC3)nc(Nc3ccncc3F)c21` [Example 2], 0.5 nM. In the case of `CC(C)n1cnc2cc(-c3ccc4c(c3)N([C@H]3C[C@@H](N5CCCCC5)C3)C(=O)C43CCN(C(=O)C(C)(C)O)CC3)nc(Nc3ccncc3F)c21` [Example 3] it was 0.6 nM; in that of `CC(C)n1cnc2cc(-c3ccc4c(c3)N([C@H]3C[C@@H](N5CCC(C)(C)C5)C3)C(=O)C43CCN(C(=O)C(C)(C)O)CC3)nc(Nc3ccncc3F)c21` [Example 4], 0.4 nM; in that of `CC(C)n1cnc2cc(-c3ccc4c(c3)N([C@H]3C[C@@H](N5CCC6(CC6)C5)C3)C(=O)C43CCN(C(=O)C4(C)COC4)CC3)nc(Nc3ccncc3F)c21` [Example 5], 0.5 nM. For `CC(C)n1cnc2cc(-c3ccc4c(c3)N([C@H]3C[C@@H](N5CC6CC(C6)C5)C3)C(=O)C43CCN(C(=O)C4(C)COC4)CC3)nc(Nc3ccncc3F)c21` [Example 7], the IC50 is 0.2 nM. Consider `CC(C)n1cnc2cc(-c3ccc4c(c3)N([C@H]3C[C@@H](N5C[C@@H](C)[C@@H](C)C5)C3)C(=O)C43CCN(C(=O)C4(C)COC4)CC3)nc(Nc3ccncc3F)c21` [Example 8], for which the IC50 turned out to be 0.2 nM. Under `CC(C)n1cnc2cc(-c3ccc4c(c3)N([C@H]3C[C@@H](N5C[C@@H](C)[C@@H](C)C5)C3)C(=O)C43CCN(C(=O)[C@@H]4CCCO4)CC3)nc(Nc3ccncc3F)c21` [Example 9] stands 0.2 nM; under `CC(C)n1cnc2cc(-c3ccc4c(c3)N([C@H]3C[C@@H](N5C[C@@H](C)[C@@H](C)C5)C3)C(=O)C43CCN(C(=O)C(C)(C)CO)CC3)nc(Nc3ccncc3F)c21` [Example 10], 0.05 nM; under `CC(C)n1cnc2cc(-c3ccc4c(c3)N([C@H]3C[C@@H](N5CCCCC5)C3)C(=O)C43CCN(C(=O)C4(C)CCO4)CC3)nc(Nc3ccncc3F)c21` (stereo partly shown) [Example 11], 0.2 nM. With `CC(C)n1cnc2cc(-c3ccc4c(c3)N([C@H]3C[C@@H](N5CCC(C)(C)C5)C3)C(=O)C43CCN(C(=O)C4(C)CCO4)CC3)nc(Nc3ccncc3F)c21` (stereo partly shown) [Example 12], the IC50 was found to be 0.1 nM. Consider `CC(C)n1cnc2cc(-c3ccc4c(c3)N([C@H]3C[C@@H](N5CCC(C)(C)C5)C3)C(=O)C43CCN(C(=O)[C@@H]4CCCO4)CC3)nc(Nc3ccncc3F)c21` [Example 13], for which the IC50 was found to be 0.2 nM. Under `CC(C)n1cnc2cc(-c3ccc4c(c3)N([C@H]3C[C@@H](N5CCC(C)(C)C5)C3)C(=O)C43CCN(C(=O)[C@H]4CCCO4)CC3)nc(Nc3ccncc3F)c21` [Example 14] stands 0.2 nM; under `CC(C)n1cnc2cc(-c3ccc4c(c3)N([C@H]3C[C@@H](N5CCC(C)(C)C5)C3)C(=O)C43CCN(C(=O)[C@H]4CCOC4)CC3)nc(Nc3ccncc3F)c21` [Example 16], 0.3 nM.

Take `CC(C)n1cnc2cc(-c3ccc4c(c3)N([C@H]3C[C@@H](N5CCC(C)(C)C5)C3)C(=O)C43CCN(C(=O)[C@@H]4CCOC4)CC3)nc(Nc3ccncc3F)c21` [Example 17]: the IC50 was determined as 0.3 nM. Under `CC(C)n1cnc2cc(-c3ccc4c(c3)N([C@H]3C[C@@H](N5CCC(C)(C)C5)C3)C(=O)C43CCN(C(=O)C4(C)CCOC4)CC3)nc(Nc3ccncc3F)c21` (stereo partly shown) [Example 18] stands 0.3 nM; under `CC(C)n1cnc2cc(-c3ccc4c(c3)N([C@H]3C[C@@H](N5CCC(C)(C)C5)C3)C(=O)C43CCN(C(=O)[C@@H]4OCC[C@@H]4C)CC3)nc(Nc3ccncc3F)c21` [Example 19A, 1-((1s,3S)-3-(3,3-dimethylpyrrolidin-1-yl)cyclobutyl)-6-(4-((3-fluoropyridin-4-yl)amino)-3-isopropyl-3H-imidazo[4,5-c]pyridin-6-yl)-1′-((2R,3S)-3-methyltetrahydrofuran-2-carbonyl)spiro[indoline-3,4′-piperidin]-2-one], 0.2 nM; under `CC(C)n1cnc2cc(-c3ccc4c(c3)N([C@H]3C[C@@H](N5CCC(C)(C)C5)C3)C(=O)C43CCN(C(=O)[C@H]4OCC[C@H]4C)CC3)nc(Nc3ccncc3F)c21` [Example 19B, 1-((1s,3R)-3-(3,3-dimethylpyrrolidin-1-yl)cyclobutyl)-6-(4-((3-fluoropyridin-4-yl)amino)-3-isopropyl-3H-imidazo[4,5-c]pyridin-6-yl)-1′-((2S,3R)-3-methyltetrahydrofuran-2-carbonyl)spiro[indoline-3,4′-piperidin]-2-one], 0.1 nM. Under `CC(C)n1cnc2cc(-c3ccc4c(c3)N([C@H]3C[C@@H](N5CCC(C)(C)C5)C3)C(=O)C43CCN(C(=O)[C@H]4CC[C@@H](C)O4)CC3)nc(Nc3ccncc3F)c21` [Example 20A, 1-((1s,3S)-3-(3,3-dimethylpyrrolidin-1-yl)cyclobutyl)-6-(4-((3-fluoropyridin-4-yl)amino)-3-isopropyl-3H-imidazo[4,5-c]pyridin-6-yl)-1′-((2R,5R)-5-methyltetrahydrofuran-2-carbonyl)spiro[indoline-3,4′-piperidin]-2-one] stands 0.1 nM.
